Publication PMC8877448, “In Vitro and In Vivo Pharmacological Characterization of a Novel TRPM8 Inhibitor Chemotype Identified by Small-Scale Preclinical Screening” (International Journal of Molecular Sciences, 2022)
Several values for one entry are separate records, joined by “and”; a condition that tells them apart may be missing. Equal values may be shown once. Read-outs that look alike come from different tables or passages of the source.

Assays:
[1] = molecular target: T1, rat isoform of TRPM8 channels (Rattus norvegicus, UniProt Q8R455); assay: Ca2+ fluorometric assay, block of menthol-evoked responses in HEK293 cells stably expressing rTRPM8; format: cell-based; conditions: for Efficacy: percentage of inhibition of menthol evoked currents at the maximum concentration used (50 µM); for potency compared with AMTB: calcium fluorometric assay
T1 construct: expressed in transfected cells
Method: The inhibitory activity of the 21 selected compounds over TRPM8 was challenged by Ca^2+ fluorometric assays using HEK293 cells stably expressing the rat isoform of TRPM8 channels. Menthol and AMTB were used as reference agonist and antagonist, respectively. The compounds were initially tested at three different concentrations (50 μM, 5 μM, and 0.5 μM) to assess their ability in blocking 100 μM menthol evoked currents.
(§1) Cells, HEK-293 cells stably expressing rTRPM8 or hTRPV1, were cultured in a monolayer in Earle’s minimum essential medium with Earle’s salts supplemented with 10% fetal calf serum, 1% nonessential amino acids, 2 mM L-glutamine, 100 µg streptomycin/mL, 100 U penicillin/mL, and 0.4 µg/mL puromycin (referred to as Puro-EMEM) and kept at 37 °C in a humidified atmosphere of 5% CO2 in a suitable incubator (STERI-CyCLE CO2 Incubator Hepa Class 100, Thermo Electrón Corporation, Waltham, MA, USA). Cells were stored under liquid nitrogen and used for 15 generations from unfreezing.
For fluorometric experiments, HEK-293 cells stably expressing rTRPM8 or hTRPV1 were detached by means of Trypsin/EDTA solution, resuspended in DMEM-10%FCS and seeded at a concentration of 2 × 10^4 cells/mL.
(§2) Briefly human embryonic kidney cell line (HEK) stably transfected with rTRPM8 or hTRPV1 were seeded in 96-well plates at a cell density of 30,000 cells. After 2 days the medium was replaced with 100 μL of the dye loading solution Fluo-4 NW supplemented with probenecid 2.5 mM and incubated 1 h at 37 °C. The TRP ion channel activity was measured using POLASTAR plate reader (BMG Labtech, Ortenberg, Germany) setting the excitation wavelength at 485 nm and emission wavelength at 520 nm. The baseline fluorescence was recorded for 3 cycles before the addition of the vehicle, compound at different concentrations, and the antagonist, 10 μM AMTB for TRPM8 and Ruthenium red for TRPV1. Fluorescence intensity was recorded during 7 more cycles and agonist 100 μM menthol for TRPM8 or 10 μM capsaicin for TRPV1 was added. Fluorescence intensity was recorded during 10 more cycles.
Data analysis: The Z-factor was calculated in each assay using the following equation: […]. […] A decrease in menthol signal was expressed as a percentage of inhibition (%). All data are expressed as the mean ± standard deviation (SD). Data are expressed as the concentration exerting a half-maximal inhibition of agonist-induced (Ca^2+)^i elevation (IC50), which was calculated again using GraphPad Prism® software (GraphPad Prism 5, Graphpad Software, San Diego, CA, USA). The equation used was Y = Bottom + (Top − Bottom)/(1 + 10^((LogEC50-X) ^× HillSlope)), with the restriction of the minimum (Bottom = 0). All determinations were performed in triplicate (n = 3) in 3 independent experiments (n= 3).

rTRPM8 = molecular target: T2, rTRPM8 (Rattus norvegicus, UniProt Q8R455); assay: Whole-cell patch-clamp on HEK-rTRPM8 cells, menthol-evoked currents; format: cell-based
T2 construct: expressed in transfected cells
Method: Dose-response curves were then recorded to evaluate the compound relative potencies.
Whole-cell patch-clamp recordings from HEK-rTRPM8 cells were carried out 2 days after seeding on 12-mm Ø glass coverslips treated with poly-L-lysine solution (Sigma Aldrich, Madrid, Spain); the intracellular pipette solution contained (in mM) 150 NaCl, 5 EGTA, 3 MgCl2, and 10 HEPES, adjusted to pH 7.2 with NaOH, and the extracellular solution contained (in mM) 150 NaCl, 6 CsCl, 1.5 CaCl2, 1 MgCl2, 10 D-glucose and 10 HEPES, adjusted to pH 7.4 with NaOH. The TRPM8 activity was measured by the application of two pulses of 100 μM menthol in a time interval of 2 min and 30-s perfusion of the different compound concentrations before the second menthol pulse.
The series resistance was <10 MΩ and to minimize voltage errors was compensated to 60–80%. All measurements were performed at 24–25 °C. Cell capacitance was measured and used to estimate the current density (J, pA/pF).
For the whole-cell patch-clamp experiments, results are expressed as the percentage of the remaining activation of the TRPM8 channel. This is calculated by normalizing the ratio (p2/p1) of testing conditions to the ratio (p2/p1) of the control condition. The analysis of the data was performed by GraphPad 6.0, the ordinary one-way ANOVA analysis followed by the post hoc Bonferroni test established multiple comparisons, and the ROUT method (Q = 10%) identified data outliers. […] Paired or unpaired Student’s t-tests were also used for data comparison between two groups. All data are expressed as the mean ± standard error of the mean (SEM) (n = 12–15).

[2] = test system: oxaliplatin-induced cold allodynia; assay: Oxaliplatin-induced cold hypersensitivity, acetone drop test; format: in vivo, mice; conditions: for effect on oxaliplatin-induced cold hypersensitivity: acetone drop test
Source text: TRPM8 antagonism is deeply related to analgesic in vivo effects and has been proposed as a suitable pharmacological strategy for the treatment of chronic pain, migraine, and painful syndromes. TRPM8 antagonists are particularly known to counteract the chemotherapy-induced neuropathic pain evoked by oxaliplatin [24, 27, 28, 29]. For these reasons we challenged compound 14 (BB 0322703) in vivo using the oxaliplatin-induced cold hypersensitivity assay. […]. […] In particular, a correspondence between the in vitro potency and the effective in vivo dose is typical for TRPM8 modulators in the oxaliplatin-induced neuropathic pain model. Extremely in-vitro potent compounds are effective also at lower doses […]. When in vitro potency is reduced, as also in the present case, in vivo efficacy decreases correspondingly. […] This is also the case of compound 14, which for these reasons could be considered a promising hit-compound for the development of new chemotypes as TRPM8 antagonists and a pharmacological tool for the treatment of neuropathic pain.
[…]. Care was taken to minimize the number of animals used and the pain and stress they experienced. All experimental procedures were approved by the Animal Care and Use Committees of Universidad Miguel Hernández and the regional government and were conducted according to the ethical principles of the International Association for the Study of Pain (IASP) for the evaluation of pain in conscious animals, the European Parliament and the Council Directive (2010/63/EU) and the Spanish law (RD 53/2013). Housing conditions were maintained at 21 ± 1 °C and 55 ± 15% relative humidity in a controlled light/dark cycle (light on between 8:00 a.m. and 8:00 p.m.). Animals had free access to food and water except during the habituation or the evaluation of nociceptive sensitivity. All parts of the study concerning animal care were performed under veterinary control.
Compound 14 (BB 0322703) was dissolved in 2.5% dimethyl sulfoxide (Merck, Darmstadt, Germany) and 2.5% cremophor EL (Merck) diluted in saline. […]
Oxaliplatin-induced neuropathic pain was induced by repeated oxaliplatin administration (Cat. No. 2623, Tocris, Bristol, UK). […] Nociceptive sensitivity was assessed before oxaliplatin treatment and 3 days after the last oxaliplatin administration.
Cold chemical thermal sensitivity was assessed using the acetone drop method as previously described. […] The responses were measured for 1 min with a digital stopwatch. For each measurement, the paw was sampled three times and the mean was calculated. […]
Behavioral data were analyzed with a repeated-measures ANOVA followed by a post-hoc Tukey test (GraphPad Prism 7.04, GraphPad Software Inc.). p-values lower than 0.05 were considered statistically significant.

hTRPV1 = molecular target: T3, hTRPV1 (Homo sapiens, UniProt Q8NER1); assay: Ca2+ fluorometric assay on HEK-293 cells stably expressing hTRPV1 (selectivity); format: cell-based
T3 construct: expressed in transfected cells
Method: as §1, with “unfreezing. […]” for “unfreezing.”
as §2, with “After 2 days the medium was replaced with 100 μL of the dye loading solution Fluo-4 NW supplemented with probenecid 2.5 mM and incubated 1 h at 37 °C.” left out, “cycles. […]” for “cycles.”

T1 sequence (Q8R455 whole entry, canonical isoform): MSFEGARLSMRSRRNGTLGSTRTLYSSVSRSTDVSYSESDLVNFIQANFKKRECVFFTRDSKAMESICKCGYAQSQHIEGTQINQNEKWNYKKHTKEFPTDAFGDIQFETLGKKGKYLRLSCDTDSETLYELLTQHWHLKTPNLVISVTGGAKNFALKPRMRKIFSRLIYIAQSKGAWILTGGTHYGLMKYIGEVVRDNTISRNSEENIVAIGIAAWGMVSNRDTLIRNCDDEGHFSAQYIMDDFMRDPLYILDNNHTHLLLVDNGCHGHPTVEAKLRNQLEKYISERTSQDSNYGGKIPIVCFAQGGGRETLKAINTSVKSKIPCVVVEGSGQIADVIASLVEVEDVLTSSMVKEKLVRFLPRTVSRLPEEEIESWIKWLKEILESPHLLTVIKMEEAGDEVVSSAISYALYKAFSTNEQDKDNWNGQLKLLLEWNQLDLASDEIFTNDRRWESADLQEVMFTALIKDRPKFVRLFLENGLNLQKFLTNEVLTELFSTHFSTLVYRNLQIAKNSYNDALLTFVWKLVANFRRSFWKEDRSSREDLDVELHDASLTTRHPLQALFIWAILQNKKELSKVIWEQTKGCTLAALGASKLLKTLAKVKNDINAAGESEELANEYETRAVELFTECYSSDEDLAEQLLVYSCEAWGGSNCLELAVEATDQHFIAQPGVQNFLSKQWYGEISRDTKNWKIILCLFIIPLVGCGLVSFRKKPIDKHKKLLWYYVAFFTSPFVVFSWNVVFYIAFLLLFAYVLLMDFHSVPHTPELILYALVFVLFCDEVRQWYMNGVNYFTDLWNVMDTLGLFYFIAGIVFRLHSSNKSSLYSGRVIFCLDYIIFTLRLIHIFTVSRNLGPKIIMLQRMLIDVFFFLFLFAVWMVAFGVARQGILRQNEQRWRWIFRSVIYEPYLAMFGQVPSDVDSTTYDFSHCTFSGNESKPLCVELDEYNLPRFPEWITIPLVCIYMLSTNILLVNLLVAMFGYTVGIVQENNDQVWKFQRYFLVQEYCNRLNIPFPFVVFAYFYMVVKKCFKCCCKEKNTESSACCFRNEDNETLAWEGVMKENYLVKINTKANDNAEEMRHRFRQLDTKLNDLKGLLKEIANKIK
T2 sequence (Q8R455 whole entry): as the sequence (Q8R455 whole entry, canonical isoform) above
T3 sequence (Q8NER1 whole entry): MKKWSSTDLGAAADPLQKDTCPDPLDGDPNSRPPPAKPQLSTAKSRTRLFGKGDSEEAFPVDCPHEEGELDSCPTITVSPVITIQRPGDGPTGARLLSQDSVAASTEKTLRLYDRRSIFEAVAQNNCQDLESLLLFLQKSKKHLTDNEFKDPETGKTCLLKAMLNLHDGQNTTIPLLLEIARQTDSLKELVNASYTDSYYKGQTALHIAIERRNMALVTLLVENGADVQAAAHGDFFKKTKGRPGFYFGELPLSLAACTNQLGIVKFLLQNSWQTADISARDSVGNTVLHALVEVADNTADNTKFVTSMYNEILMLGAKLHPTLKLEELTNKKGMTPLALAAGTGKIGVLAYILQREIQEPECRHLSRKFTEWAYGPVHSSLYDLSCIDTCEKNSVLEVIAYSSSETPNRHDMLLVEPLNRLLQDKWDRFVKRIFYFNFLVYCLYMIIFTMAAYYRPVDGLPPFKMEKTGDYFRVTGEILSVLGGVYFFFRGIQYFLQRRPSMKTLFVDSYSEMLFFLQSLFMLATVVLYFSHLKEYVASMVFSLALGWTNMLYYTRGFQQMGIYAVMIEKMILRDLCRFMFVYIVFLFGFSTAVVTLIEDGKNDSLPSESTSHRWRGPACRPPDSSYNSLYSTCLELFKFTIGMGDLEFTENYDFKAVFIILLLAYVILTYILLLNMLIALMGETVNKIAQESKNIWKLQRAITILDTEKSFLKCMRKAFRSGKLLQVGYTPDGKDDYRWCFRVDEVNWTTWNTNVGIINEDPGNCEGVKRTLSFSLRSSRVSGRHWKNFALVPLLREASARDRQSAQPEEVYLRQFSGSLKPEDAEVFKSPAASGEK

Compound | Efficacy [1] | IC50 [1] | potency compared with AMTB [1] | further results
Cc1nn(C)c(Oc2ccc(Cl)cc2)c1-c1noc(C)c1C(=O)Nc1ccc(F)cc1 [Compound 5] | 95% | 11.1 ± 1.32 µM | comparable potencies to AMTB | 
CCOC(=O)C(C)Nc1ccccc1C(=O)NC(C)c1ccccc1 [Compound 14, Ethyl (R)-N-[2-{[(1-Phenylethyl)amino]carbonyl}phenyl]-2-aminopropionic acid] | 100% | 0.25 ± 0.15 µM |  | IC50/potency fold difference versus AMTB ([1]; calcium fluorometric IC50 compared with reference AMTB): about 30 fold; IC50 (rTRPM8): 1250 ± 260 nM; effect on TRPM8 menthol-evoked currents (rTRPM8; compound at 10 μM, 100 μM menthol): abolishing the TRPM8 menthol-evoked currents; Hill slope, patch-clamp inhibition (rTRPM8; fit of dose-response curve, Top = 100): −1.23; efficacy in cold allodinya model ([2]; 30 μM dose (abstract)): showing pharmacological efficacy; effect on oxaliplatin-induced cold hypersensitivity ([2]; mice, intraplantar 10 µg): did not show significant modification of their nociceptive sensitivity; duration of inhibition of cold hypersensitivity ([2]; mice, intraplantar dose of 30 µg): at least 1 h; effect on oxaliplatin-induced cold hypersensitivity ([2]; mice, intraplantar dose of 30 µg, p < 0.05 vs. Oxaliplatin): significant inhibition of this cold hypersensitivity
COC(=O)C1=C(Nc2ccccc2F)SC(=Cc2ccccc2OCC#CC(C)(O)c2ccccn2)C1=O (centres unmarked) [Compound 19] | 90% | 5.52 ± 1.45 µM | comparable potencies to AMTB | EC50 (hTRPV1; agonist, normalized to capsaicine 10 μM = 100%, brackets 95% confidence interval, read-out: EC50 TRPV1 activation): 1340 to 1680 nM and 1340 nM; Hill Slope, TRPV1 activation (hTRPV1; fit of dose-response curve, Bottom = 0): 0.67

Second part, led by results:

Efficacy [1] | IC50 [1] | potency compared with AMTB [1] | Compound | further results
100% |  |  | Cc1cccc(COc2ccccc2C(=O)N(CCCN)Cc2cccs2)c1 [AMTB, reference compound] | IC50 ([1]; 100 μM menthol, HEK293 rTRPM8, mean ± SD of at least three independent measurements, read-out: IC50): 7.15 ± 1.24 µM
85% | 10.2 ± 1.31 µM | comparable potencies to AMTB | NCC1CCCN(CCc2cccc(F)c2)C1 (centres unmarked) [Compound 1] | 
